# In patent publication US6989371B1, “Bombesin analogs for treatment of cancer” (Dabur Research Foundation, priority 1996, dated 2006):
# Non-standard residues stand in square brackets, D forms with d. Residues, ends and D or L forms follow the SMILES beside them. *: point of attachment. Octanoyl = CCCCCCCC(=O)*; Ac5c = NC1(C(=O)O)CCCC1; Aib = CC(C)(N)C(=O)O
# What was measured:
# Test in all cases: MTT cytotoxicity assay, 48 hours (Example 14)
# U87MG (Glioblastoma) = assay type: cell-based
# Procedure: (§1) The cytotoxic effect of peptide sequences SEQ ID NO: 9, SEQ ID NO: 10, SEQ ID NO: 11 and SEQ ID NO: 12, were studied by MTT assay which is based on the principle of uptake of MTT[3-[4,5-dimethylthiazol-2-yl]-2,5-diphenyl tetrazolium bromide], a tetrazolium salt by the metabolically active cells where it is metabolized by active mitochondria into a blue colored formazan product which can be read spectrophotometrically. Tumor cells KB (oral squamous). HuTu80 (Stomach), PTC and SW620 (colon), U87MG (Glioblastoma), HBL 100. (Breast), HeP2 (laryngeal) and L132 (Lung) were incubated with the peptide analogs for 48 hours at 37° C. in a 96-well culture plate, followed by the addition of 100 μl MTT and further incubation of 1 hour. The formazon crystals formed inside the cells were dissolved with a detergent comprising 10% Sodium dodecyl sulfate and 0.01 N HCl and optical density read on a multiscan ELISA reader. The optical density was directly proportional to the number of proliferating and metabolically active cells.
# HeP2 (laryngeal) = assay type: cell-based
# Procedure: as §1
# L132 (Lung) = assay type: cell-based
# Procedure: as §1
# SW620 (colon) = assay type: cell-based, human
# Procedure: as §1
# KB (oral squamous) = assay type: cell-based, human
# Procedure: as §1
# PTC (colon) = assay type: cell-based, human
# Procedure: as §1
# HuTu80 (Stomach) = assay type: cell-based, human
# Procedure: as §1
# HBL 100 (Breast) = assay type: cell-based, human
# Procedure: as §1
smiles,measurement,setting,value
"CCCCCCCC(=O)N[C@H](Cc1ccccc1)C(=O)N[C@@H](CCC(N)=O)C(=O)N[C@@H](Cc1c[nH]c2ccccc12)C(=O)N[C@@H](C)C(=O)N[C@H](C(=O)NC(C)(C)C(=O)N[C@@H](Cc1c[nH]cn1)C(=O)N[C@@H](CC(C)C)C(N)=O)C(C)C [SEQ ID: 12, Octanoyl-D-Phe-Gln-Trp-Ala-Val-Aib-His-Leu-NH2] (Octanoyl-[dF]QWAV[Aib]HL-NH2)",Percentage cytotoxicity,U87MG (Glioblastoma); 10 pM,13.1 ± 2.2%
same,Percentage cytotoxicity,U87MG (Glioblastoma); 100 pM,22.1 ± 3.8%
same,Percentage cytotoxicity,U87MG (Glioblastoma); 1 nM,28.3 ± 1.9%
same,Percentage cytotoxicity,U87MG (Glioblastoma); 10 nM,27.5 ± 2.9%
same,Percentage cytotoxicity,U87MG (Glioblastoma); 100 nM,13.1 ± 2.3%
same,Percentage cytotoxicity,U87MG (Glioblastoma); 1 μM,15.4 ± 3.1%
same,Percentage cytotoxicity,"HeP2 (laryngeal); HeP2, 10 pM",10.0 ± 0.0%
same,Percentage cytotoxicity,"HeP2 (laryngeal); HeP2, 100 pM",24.4 ± 0.1%
same,Percentage cytotoxicity,"HeP2 (laryngeal); HeP2, 1 nM",28.9 ± 0.5%
same,Percentage cytotoxicity,"HeP2 (laryngeal); HeP2, 10 nM",29.2 ± 1.1%
same,Percentage cytotoxicity,"HeP2 (laryngeal); HeP2, 100 nM",25.6 ± 0.4%
same,Percentage cytotoxicity,"HeP2 (laryngeal); HeP2, 1 μM",28.7 ± 0.8%
same,Percentage cytotoxicity,"L132 (Lung); L132, 10 pM",0.0 ± 0.0%
same,Percentage cytotoxicity,"L132 (Lung); L132, 100 pM",23.1 ± 0.7%
same,Percentage cytotoxicity,"L132 (Lung); L132, 1 nM",26.7 ± 0.4%
same,Percentage cytotoxicity,"L132 (Lung); L132, 10 nM",26.4 ± 0.3%
same,Percentage cytotoxicity,"L132 (Lung); L132, 100 nM",22.0 ± 0.1%
same,Percentage cytotoxicity,"L132 (Lung); L132, 1 μM",22.2 ± 0.2%
same,Percentage cytotoxicity,"SW620 (colon); SW620, 10 pM",34.8 ± 0.4%
same,Percentage cytotoxicity,"SW620 (colon); SW620, 100 pM",38.4 ± 2.8%
same,Percentage cytotoxicity,"SW620 (colon); SW620, 1 nM",32.2 ± 2.6%
same,Percentage cytotoxicity,"SW620 (colon); SW620, 10 nM",36.1 ± 1.9%
same,Percentage cytotoxicity,"SW620 (colon); SW620, 100 nM",25.3 ± 0.6%
same,Percentage cytotoxicity,"SW620 (colon); SW620, 1 μM",22.6 ± 1.1%
same,Percentage cytotoxicity,KB (oral squamous); 10 pM,19.3 ± 2.9%
same,Percentage cytotoxicity,KB (oral squamous); 100 pM,19.4 ± 2.9%
same,Percentage cytotoxicity,KB (oral squamous); 1 nM,26.6 ± 4.9%
same,Percentage cytotoxicity,KB (oral squamous); 10 nM,18.6 ± 2.1%
same,Percentage cytotoxicity,KB (oral squamous); 100 nM,11.1 ± 3.1%
same,Percentage cytotoxicity,KB (oral squamous); 1 μM,12.4 ± 1.2%
same,Percentage cytotoxicity,PTC (colon); 10 pM,19.5 ± 0.8%
same,Percentage cytotoxicity,PTC (colon); 100 pM,18.6 ± 2.4%
same,Percentage cytotoxicity,PTC (colon); 1 nM,30.1 ± 4.1%
same,Percentage cytotoxicity,PTC (colon); 10 nM,20.7 ± 3.8%
same,Percentage cytotoxicity,PTC (colon); 100 nM,16.1 ± 2.5%
same,Percentage cytotoxicity,PTC (colon); 1 μM,14.4 ± 2.7%
same,Percentage cytotoxicity,"HuTu80 (Stomach); HuTu80, 10 pM",8.3 ± 1.1%
same,Percentage cytotoxicity,"HuTu80 (Stomach); HuTu80, 100 pM",13.0 ± 0.7%
same,Percentage cytotoxicity,"HuTu80 (Stomach); HuTu80, 1 nM",33.1 ± 4.8%
same,Percentage cytotoxicity,"HuTu80 (Stomach); HuTu80, 10 nM",23.4 ± 0.5%
same,Percentage cytotoxicity,"HuTu80 (Stomach); HuTu80, 100 nM",21.8 ± 2.1%
same,Percentage cytotoxicity,"HuTu80 (Stomach); HuTu80, 1 μM",20.0 ± 3.9%
same,Percentage cytotoxicity,"HBL 100 (Breast); HBL100, 10 pM",29.0 ± 3.8%
same,Percentage cytotoxicity,"HBL 100 (Breast); HBL100, 100 pM",34.7 ± 2.8%
same,Percentage cytotoxicity,"HBL 100 (Breast); HBL100, 1 nM",29.6 ± 0.4%
same,Percentage cytotoxicity,"HBL 100 (Breast); HBL100, 10 nM",27.7 ± 1.5%
same,Percentage cytotoxicity,"HBL 100 (Breast); HBL100, 100 nM",23.6 ± 2.7%
same,Percentage cytotoxicity,"HBL 100 (Breast); HBL100, 1 μM",11.8 ± 1.1%
"CC(C)C[C@H](NC(=O)[C@H](Cc1c[nH]cn1)NC(=O)C1(NC(=O)[C@@H](NC(=O)[C@H](C)NC(=O)[C@H](Cc2c[nH]c3ccccc23)NC(=O)[C@H](CCC(N)=O)NC(=O)[C@H](N)Cc2ccccc2)C(C)C)CCCC1)C(N)=O [SEQ ID: 10, D-Phe-Gln-Trp-Ala-Val-Ac5c-His-Leu-NH2] (H-[dF]QWAV[Ac5c]HL-NH2; N-terminus assumed)",Percentage cytotoxicity,U87MG (Glioblastoma); 10 pM,11.6 ± 1.7%
same,Percentage cytotoxicity,U87MG (Glioblastoma); 100 pM,16.5 ± 0.5%
same,Percentage cytotoxicity,U87MG (Glioblastoma); 1 nM,25.6 ± 2.1%
same,Percentage cytotoxicity,U87MG (Glioblastoma); 10 nM,20.0 ± 0.0%
same,Percentage cytotoxicity,U87MG (Glioblastoma); 100 nM,15.0 ± 0.5%
same,Percentage cytotoxicity,U87MG (Glioblastoma); 1 μM,10.0 ± 0.0%
same,Percentage cytotoxicity,"HeP2 (laryngeal); HeP2, 10 pM",1.7 ± 0.1%
same,Percentage cytotoxicity,"HeP2 (laryngeal); HeP2, 100 pM",19.1 ± 0.6%
same,Percentage cytotoxicity,"HeP2 (laryngeal); HeP2, 1 nM",27.2 ± 2.6%
same,Percentage cytotoxicity,"HeP2 (laryngeal); HeP2, 10 nM",27.5 ± 2.8%
same,Percentage cytotoxicity,"HeP2 (laryngeal); HeP2, 100 nM",26.3 ± 1.7%
same,Percentage cytotoxicity,"HeP2 (laryngeal); HeP2, 1 μM",19.9 ± 1.5%
same,Percentage cytotoxicity,"L132 (Lung); L132, 10 pM",1.9 ± 0.2%
same,Percentage cytotoxicity,"L132 (Lung); L132, 100 pM",29.4 ± 1.9%
same,Percentage cytotoxicity,"L132 (Lung); L132, 1 nM",29.5 ± 2.8%
same,Percentage cytotoxicity,"L132 (Lung); L132, 10 nM",27.5 ± 2.8%
same,Percentage cytotoxicity,"L132 (Lung); L132, 100 nM",27.8 ± 2.1%
same,Percentage cytotoxicity,"L132 (Lung); L132, 1 μM",22.4 ± 1.8%
same,Percentage cytotoxicity,"SW620 (colon); SW620, 10 pM",16.7 ± 0.2%
same,Percentage cytotoxicity,"SW620 (colon); SW620, 100 pM",20.9 ± 0.6%
same,Percentage cytotoxicity,"SW620 (colon); SW620, 1 nM",22.4 ± 1.7%
same,Percentage cytotoxicity,"SW620 (colon); SW620, 10 nM",25.5 ± 2.8%
same,Percentage cytotoxicity,"SW620 (colon); SW620, 100 nM",19.4 ± 1.8%
same,Percentage cytotoxicity,"SW620 (colon); SW620, 1 μM",22.2 ± 2.1%
same,Percentage cytotoxicity,KB (oral squamous); 10 pM,19.2 ± 2.9%
same,Percentage cytotoxicity,KB (oral squamous); 100 pM,25.0 ± 6.3%
same,Percentage cytotoxicity,KB (oral squamous); 1 nM,31.1 ± 4.1%
same,Percentage cytotoxicity,KB (oral squamous); 10 nM,27.3 ± 2.7%
same,Percentage cytotoxicity,KB (oral squamous); 100 nM,22.0 ± 1.1%
same,Percentage cytotoxicity,KB (oral squamous); 1 μM,16.5 ± 0.2%
same,Percentage cytotoxicity,PTC (colon); 10 pM,22.2 ± 4.9%
same,Percentage cytotoxicity,PTC (colon); 100 pM,21.6 ± 3.1%
same,Percentage cytotoxicity,PTC (colon); 1 nM,29.4 ± 2.9%
same,Percentage cytotoxicity,PTC (colon); 10 nM,32.5 ± 5.1%
same,Percentage cytotoxicity,PTC (colon); 100 nM,29.3 ± 3.2%
same,Percentage cytotoxicity,PTC (colon); 1 μM,28.4 ± 3.6%
same,Percentage cytotoxicity,"HuTu80 (Stomach); HuTu80, 10 pM",13.5 ± 0.8%
same,Percentage cytotoxicity,"HuTu80 (Stomach); HuTu80, 100 pM",22.9 ± 0.2%
same,Percentage cytotoxicity,"HuTu80 (Stomach); HuTu80, 1 nM",23.3 ± 2.8%
same,Percentage cytotoxicity,"HuTu80 (Stomach); HuTu80, 10 nM",20.6 ± 1.7%
same,Percentage cytotoxicity,"HuTu80 (Stomach); HuTu80, 100 nM",21.0 ± 2.0%
same,Percentage cytotoxicity,"HuTu80 (Stomach); HuTu80, 1 μM",17.2 ± 1.1%
same,Percentage cytotoxicity,"HBL 100 (Breast); HBL100, 10 pM",21.1 ± 0.7%
same,Percentage cytotoxicity,"HBL 100 (Breast); HBL100, 100 pM",16.6 ± 0.1%
same,Percentage cytotoxicity,"HBL 100 (Breast); HBL100, 1 nM",23.3 ± 1.6%
same,Percentage cytotoxicity,"HBL 100 (Breast); HBL100, 10 nM",32.9 ± 0.7%
same,Percentage cytotoxicity,"HBL 100 (Breast); HBL100, 100 nM",21.2 ± 1.7%
same,Percentage cytotoxicity,"HBL 100 (Breast); HBL100, 1 μM",18.5 ± 1.7%
